# ChEMBL document CHEMBL5465560, “Selectivity Literature for EUbOPEN Chemogenomic Library” (2024)
# Key:
# [1] = target: Protein arginine N-methyltransferase 7 (Homo sapiens, UniProt Q9NVM4); test: Selectivity interaction (Scintillation proximity assays) EUB0000255b PRMT7
# [2] = target: T1, Dual specificity mitogen-activated protein kinase kinase 3 (Homo sapiens) (UniProt P46734); test: Selectivity interaction (KinomeScan (DiscoverX)) EUB0000229b MAP2K3; details: at 10 µM
# T1 sequence (whole entry): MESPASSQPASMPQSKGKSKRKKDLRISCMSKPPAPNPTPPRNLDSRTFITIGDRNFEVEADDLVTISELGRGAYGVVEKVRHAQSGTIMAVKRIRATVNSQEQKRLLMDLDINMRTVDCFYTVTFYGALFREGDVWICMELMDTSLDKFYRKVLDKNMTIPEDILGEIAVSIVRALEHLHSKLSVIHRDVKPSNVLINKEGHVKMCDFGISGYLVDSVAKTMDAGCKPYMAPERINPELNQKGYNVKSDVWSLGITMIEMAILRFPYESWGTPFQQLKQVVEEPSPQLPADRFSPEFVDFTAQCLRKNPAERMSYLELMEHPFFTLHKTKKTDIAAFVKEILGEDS
# [3] = target: Serine/threonine-protein kinase Nek6 (Homo sapiens) (UniProt Q9HC98); test: Selectivity interaction (KinomeScan (DiscoverX)) EUB0000229b NEK6; details: at 10 µM
# [4] = target: Mitogen-activated protein kinase kinase kinase 10 (Homo sapiens) (UniProt Q02779); test: Selectivity interaction (KinomeScan (DiscoverX)) EUB0000229b MAP3K10; details: at 10 µM
# [5] = target: Ribosomal protein S6 kinase beta-2 (Homo sapiens) (UniProt Q9UBS0); test: Selectivity interaction (Kinase panel (KiNativ target engagement assay in Jurkat cells)) EUB0001635a RPS6KB2; format: cell-based; details: Selectivity number of off-targets 0.0, Selectivity number of targets 233.0, Source Knowledge https://www.sciencedirect.com/science/article/pii/S2451945619300674?via%3Dihub, at 1 µM
# [6] = target: Cyclin-dependent kinase-like 1 (Homo sapiens) (UniProt Q00532); details: at 10 µM
# [7] = target: Tyrosine-protein kinase Blk (Homo sapiens) (UniProt P51451); test: Selectivity interaction (Kinase panel (Invitrogen)) EUB0000639a BLK; details: at 200 nM
# [8] = target: Glycogen synthase kinase-3 beta (Homo sapiens, UniProt P49841); test: Selectivity interaction (ActivX KiNativ screen (kinase selectivity in THP-1 cell lysates)) EUB0000639a GSK3B; format: subcellular; details: lysate
# [9] = target: DNA-dependent protein kinase catalytic subunit (Homo sapiens) (UniProt P78527); test: Selectivity interaction (Kinase panel (Invitrogen)) EUB0000639a PRKDC; details: at 200 nM
# [10] = target: Platelet-derived growth factor receptor alpha (Homo sapiens, UniProt P16234); test: Selectivity interaction (Kinase panel (Invitrogen)) EUB0000639a PDGFRA; details: at 200 nM
# [11] = target: T2, Serine/threonine-protein kinase LATS1 (Homo sapiens) (UniProt O95835); test: Selectivity interaction (ActivX KiNativ screen (kinase selectivity in THP-1 cell lysates)) EUB0000639a LATS1; format: subcellular; details: lysate, at 5 µM
# T2 sequence (whole entry): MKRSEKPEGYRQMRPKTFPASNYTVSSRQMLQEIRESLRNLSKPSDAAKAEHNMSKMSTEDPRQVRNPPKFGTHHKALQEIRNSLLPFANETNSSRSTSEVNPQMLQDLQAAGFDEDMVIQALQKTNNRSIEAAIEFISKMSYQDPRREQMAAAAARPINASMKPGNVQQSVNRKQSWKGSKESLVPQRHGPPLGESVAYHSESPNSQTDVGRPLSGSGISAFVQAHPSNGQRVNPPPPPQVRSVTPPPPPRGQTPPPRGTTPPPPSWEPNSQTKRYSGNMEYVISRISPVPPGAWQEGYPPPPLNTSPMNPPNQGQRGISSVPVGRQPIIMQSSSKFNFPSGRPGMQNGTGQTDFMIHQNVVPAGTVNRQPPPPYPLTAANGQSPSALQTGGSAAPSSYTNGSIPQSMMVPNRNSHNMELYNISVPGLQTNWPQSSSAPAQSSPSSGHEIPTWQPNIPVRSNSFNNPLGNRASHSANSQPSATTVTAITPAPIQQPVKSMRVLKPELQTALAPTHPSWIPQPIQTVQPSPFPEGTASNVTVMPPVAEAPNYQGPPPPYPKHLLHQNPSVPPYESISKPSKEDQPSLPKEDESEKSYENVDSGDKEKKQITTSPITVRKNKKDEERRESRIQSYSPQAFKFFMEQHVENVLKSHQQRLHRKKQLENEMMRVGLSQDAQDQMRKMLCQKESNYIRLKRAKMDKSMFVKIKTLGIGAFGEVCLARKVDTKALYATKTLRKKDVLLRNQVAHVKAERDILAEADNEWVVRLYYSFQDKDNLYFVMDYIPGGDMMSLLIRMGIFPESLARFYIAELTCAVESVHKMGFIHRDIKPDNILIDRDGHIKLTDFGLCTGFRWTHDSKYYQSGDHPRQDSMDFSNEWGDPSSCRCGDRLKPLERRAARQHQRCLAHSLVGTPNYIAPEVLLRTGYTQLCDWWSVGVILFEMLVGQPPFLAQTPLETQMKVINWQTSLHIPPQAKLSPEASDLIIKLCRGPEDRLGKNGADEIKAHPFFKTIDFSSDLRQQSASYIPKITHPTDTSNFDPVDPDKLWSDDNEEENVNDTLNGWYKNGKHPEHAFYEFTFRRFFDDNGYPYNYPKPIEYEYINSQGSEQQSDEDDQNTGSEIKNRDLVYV
# [12] = target: Mitogen-activated protein kinase 10 (Homo sapiens, UniProt P53779); test: Selectivity interaction (SelectScreen profiling (Invitrogen)) EUB0000607a MAPK10; details: at 2 µM
# [13] = target: Serine/threonine-protein kinase/endoribonuclease IRE1 (Homo sapiens) (UniProt O75460); test: Selectivity interaction (KinomeScan (DiscoverX)) EUB0000695a ERN1; details: at 100 nM
# [14] = target: Tyrosine-protein kinase Fyn (Homo sapiens) (UniProt P06241); test: Selectivity interaction (KinomeScan (DiscoverX)) EUB0000045b FYN
# [15] = target: Serine/threonine-protein kinase 10 (Homo sapiens) (UniProt O94804); test: Selectivity interaction (ActivX KiNativ screen (ex vivo kinase selectivity in human PBMCs)) EUB0001619a STK10; format: cell-based; details: PBMC, at 1 µM
# [16] = target: Serine/threonine-protein kinase 16 (Homo sapiens, UniProt O75716); test: Selectivity interaction (ActivX KiNativ screen (ex vivo kinase selectivity in human PBMCs)) EUB0001619a STK16; format: cell-based; details: PBMC, at 1 µM
# Sequence of Serine/threonine-protein kinase 16 (O75716 whole entry): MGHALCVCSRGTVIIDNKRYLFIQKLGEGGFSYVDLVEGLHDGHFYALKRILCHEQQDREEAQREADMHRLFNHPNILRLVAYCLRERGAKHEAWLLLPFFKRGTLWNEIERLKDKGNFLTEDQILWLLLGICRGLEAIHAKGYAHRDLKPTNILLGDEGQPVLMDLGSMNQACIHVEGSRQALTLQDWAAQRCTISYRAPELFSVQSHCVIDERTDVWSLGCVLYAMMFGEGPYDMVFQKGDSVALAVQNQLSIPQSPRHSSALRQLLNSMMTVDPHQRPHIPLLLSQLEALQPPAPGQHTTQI
# Sequence of Glycogen synthase kinase-3 beta (P49841 whole entry, looked up): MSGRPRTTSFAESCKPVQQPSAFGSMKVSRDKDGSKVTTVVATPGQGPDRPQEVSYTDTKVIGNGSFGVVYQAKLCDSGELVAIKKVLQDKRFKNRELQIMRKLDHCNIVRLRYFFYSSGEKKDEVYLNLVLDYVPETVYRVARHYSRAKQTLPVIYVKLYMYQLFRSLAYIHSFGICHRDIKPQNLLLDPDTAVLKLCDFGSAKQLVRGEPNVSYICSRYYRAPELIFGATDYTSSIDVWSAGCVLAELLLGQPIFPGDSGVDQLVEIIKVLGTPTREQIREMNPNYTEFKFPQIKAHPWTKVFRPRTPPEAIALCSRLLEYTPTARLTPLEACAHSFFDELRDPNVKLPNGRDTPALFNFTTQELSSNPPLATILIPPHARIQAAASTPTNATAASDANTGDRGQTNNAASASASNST
# Sequence of Tyrosine-protein kinase Fyn (Homo sapiens) (P06241 2-537 limits assumed): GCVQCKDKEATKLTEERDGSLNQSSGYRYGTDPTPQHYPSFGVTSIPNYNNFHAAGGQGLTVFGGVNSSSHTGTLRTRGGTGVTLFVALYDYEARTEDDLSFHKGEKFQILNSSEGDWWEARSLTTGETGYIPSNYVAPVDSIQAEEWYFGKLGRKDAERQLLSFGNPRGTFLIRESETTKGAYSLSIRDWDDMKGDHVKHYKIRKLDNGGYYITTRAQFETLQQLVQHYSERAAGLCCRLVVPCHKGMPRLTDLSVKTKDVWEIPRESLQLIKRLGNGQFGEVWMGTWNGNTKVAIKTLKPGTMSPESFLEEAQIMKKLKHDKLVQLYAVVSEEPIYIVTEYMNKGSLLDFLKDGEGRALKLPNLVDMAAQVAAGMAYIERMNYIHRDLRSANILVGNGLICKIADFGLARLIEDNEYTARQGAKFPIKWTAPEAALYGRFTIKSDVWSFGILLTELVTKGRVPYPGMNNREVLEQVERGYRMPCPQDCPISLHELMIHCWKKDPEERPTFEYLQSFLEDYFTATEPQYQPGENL
# Sequence of Serine/threonine-protein kinase Nek6 (Homo sapiens) (Q9HC98 whole entry): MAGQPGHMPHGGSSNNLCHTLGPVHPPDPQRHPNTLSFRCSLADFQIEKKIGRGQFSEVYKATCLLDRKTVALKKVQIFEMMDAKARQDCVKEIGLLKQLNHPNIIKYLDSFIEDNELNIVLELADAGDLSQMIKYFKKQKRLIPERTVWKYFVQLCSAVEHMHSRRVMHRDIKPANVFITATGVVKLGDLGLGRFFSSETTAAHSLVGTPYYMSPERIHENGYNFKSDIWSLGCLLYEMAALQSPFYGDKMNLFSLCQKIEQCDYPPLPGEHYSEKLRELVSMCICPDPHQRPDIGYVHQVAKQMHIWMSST
# Sequence of Mitogen-activated protein kinase 10 (P53779 whole entry): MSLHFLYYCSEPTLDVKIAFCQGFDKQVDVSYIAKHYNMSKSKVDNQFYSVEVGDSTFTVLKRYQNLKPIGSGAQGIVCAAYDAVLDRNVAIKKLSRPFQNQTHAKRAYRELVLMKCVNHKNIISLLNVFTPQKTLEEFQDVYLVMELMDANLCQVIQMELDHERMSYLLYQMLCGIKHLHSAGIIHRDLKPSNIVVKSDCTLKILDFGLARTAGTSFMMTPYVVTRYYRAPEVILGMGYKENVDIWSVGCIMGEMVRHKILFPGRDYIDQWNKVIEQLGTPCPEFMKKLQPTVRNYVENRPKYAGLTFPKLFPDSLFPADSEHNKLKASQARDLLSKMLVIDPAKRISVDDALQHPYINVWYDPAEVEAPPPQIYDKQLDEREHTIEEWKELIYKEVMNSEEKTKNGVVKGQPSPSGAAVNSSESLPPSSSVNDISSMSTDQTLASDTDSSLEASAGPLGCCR
# Sequence of Serine/threonine-protein kinase/endoribonuclease IRE1 (Homo sapiens) (O75460 19-977 limits assumed): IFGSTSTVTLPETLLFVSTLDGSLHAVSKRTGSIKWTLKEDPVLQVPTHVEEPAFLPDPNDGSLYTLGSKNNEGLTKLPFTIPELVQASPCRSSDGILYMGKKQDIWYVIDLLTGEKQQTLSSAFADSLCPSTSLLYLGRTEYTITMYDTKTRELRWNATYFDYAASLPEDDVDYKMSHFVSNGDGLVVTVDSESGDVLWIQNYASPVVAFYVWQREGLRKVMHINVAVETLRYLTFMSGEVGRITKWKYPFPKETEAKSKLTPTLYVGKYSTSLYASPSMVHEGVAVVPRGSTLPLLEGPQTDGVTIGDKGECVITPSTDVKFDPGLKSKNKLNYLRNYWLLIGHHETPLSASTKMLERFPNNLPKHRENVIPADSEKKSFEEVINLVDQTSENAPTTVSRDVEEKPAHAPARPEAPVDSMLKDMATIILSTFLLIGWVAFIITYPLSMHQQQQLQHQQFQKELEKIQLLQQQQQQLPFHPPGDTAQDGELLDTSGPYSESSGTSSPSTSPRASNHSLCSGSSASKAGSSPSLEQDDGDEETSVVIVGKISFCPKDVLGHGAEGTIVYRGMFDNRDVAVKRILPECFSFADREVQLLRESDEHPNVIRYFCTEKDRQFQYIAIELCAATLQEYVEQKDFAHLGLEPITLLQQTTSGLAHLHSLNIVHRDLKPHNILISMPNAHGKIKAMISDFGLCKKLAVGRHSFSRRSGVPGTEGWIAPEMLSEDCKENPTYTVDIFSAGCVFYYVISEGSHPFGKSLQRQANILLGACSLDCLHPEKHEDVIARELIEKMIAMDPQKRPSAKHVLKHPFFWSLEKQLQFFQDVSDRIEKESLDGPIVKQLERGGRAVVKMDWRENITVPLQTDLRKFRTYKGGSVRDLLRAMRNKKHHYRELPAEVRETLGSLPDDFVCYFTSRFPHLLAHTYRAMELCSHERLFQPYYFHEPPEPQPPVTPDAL
# Sequence of Ribosomal protein S6 kinase beta-2 (Homo sapiens) (Q9UBS0 whole entry): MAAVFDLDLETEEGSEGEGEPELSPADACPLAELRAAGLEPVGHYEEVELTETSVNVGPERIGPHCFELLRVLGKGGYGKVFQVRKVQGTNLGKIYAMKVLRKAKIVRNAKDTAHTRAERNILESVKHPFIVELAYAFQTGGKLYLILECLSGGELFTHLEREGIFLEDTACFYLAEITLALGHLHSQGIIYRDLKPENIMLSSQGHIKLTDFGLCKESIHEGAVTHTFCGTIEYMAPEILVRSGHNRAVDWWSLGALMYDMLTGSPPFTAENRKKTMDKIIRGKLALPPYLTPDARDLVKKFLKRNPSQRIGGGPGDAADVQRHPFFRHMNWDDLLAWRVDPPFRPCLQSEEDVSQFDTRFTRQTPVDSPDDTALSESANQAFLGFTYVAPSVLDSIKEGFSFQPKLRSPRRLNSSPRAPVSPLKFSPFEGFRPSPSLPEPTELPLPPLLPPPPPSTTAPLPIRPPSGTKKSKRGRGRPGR
# Sequence of Protein arginine N-methyltransferase 7 (Q9NVM4 whole entry): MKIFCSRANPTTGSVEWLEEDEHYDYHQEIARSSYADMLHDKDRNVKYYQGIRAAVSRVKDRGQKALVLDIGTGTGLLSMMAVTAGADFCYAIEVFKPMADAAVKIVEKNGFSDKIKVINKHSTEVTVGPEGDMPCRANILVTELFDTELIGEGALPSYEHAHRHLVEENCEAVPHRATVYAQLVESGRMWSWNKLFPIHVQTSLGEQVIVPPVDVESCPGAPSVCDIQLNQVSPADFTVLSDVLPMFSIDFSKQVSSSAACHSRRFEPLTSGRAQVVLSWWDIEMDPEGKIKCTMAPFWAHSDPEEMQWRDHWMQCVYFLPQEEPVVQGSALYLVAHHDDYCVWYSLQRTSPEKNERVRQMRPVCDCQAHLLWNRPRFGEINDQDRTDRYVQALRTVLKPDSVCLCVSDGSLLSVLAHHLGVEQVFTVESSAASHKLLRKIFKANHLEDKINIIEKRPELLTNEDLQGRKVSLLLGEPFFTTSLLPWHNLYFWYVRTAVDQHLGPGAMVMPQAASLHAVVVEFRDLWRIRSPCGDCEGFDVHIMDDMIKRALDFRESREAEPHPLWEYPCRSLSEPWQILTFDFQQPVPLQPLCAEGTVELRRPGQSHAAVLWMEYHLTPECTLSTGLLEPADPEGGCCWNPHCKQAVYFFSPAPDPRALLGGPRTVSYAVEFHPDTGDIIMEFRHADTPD
# Sequence of Cyclin-dependent kinase-like 1 (Homo sapiens) (Q00532 whole entry): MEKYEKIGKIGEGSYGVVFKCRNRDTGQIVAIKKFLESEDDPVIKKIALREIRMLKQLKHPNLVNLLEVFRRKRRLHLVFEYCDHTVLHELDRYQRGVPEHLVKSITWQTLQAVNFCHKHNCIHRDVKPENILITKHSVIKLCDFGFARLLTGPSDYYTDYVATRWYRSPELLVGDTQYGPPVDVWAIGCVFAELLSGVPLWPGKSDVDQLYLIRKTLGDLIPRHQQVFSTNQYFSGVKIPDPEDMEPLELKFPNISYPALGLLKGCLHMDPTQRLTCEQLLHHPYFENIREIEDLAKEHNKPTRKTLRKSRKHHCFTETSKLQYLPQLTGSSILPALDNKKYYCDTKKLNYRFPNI
smiles,measurement,setting,value
COCCN1CCC(c2cc(CN(C)C(=O)c3cccc(Oc4ccccc4)c3)ccn2)CC1,IC50,[1],> 10 µM
COc1cc(N(C)c2ccnc3ccc(C(F)(F)F)cc23)cc(OC)c1OC,% binding,[2],72%
same,% binding,[3],100%
same,% binding,[4],100%
C=CC(=O)Nc1ccc(C(=O)Nc2[nH]nc3c2CN(C(=O)N[C@H](CN(C)C)c2ccccc2)C3(C)C)cc1,% of engagement,[5],-8.9%
Cc1cc([C@@H](C)Nc2ccccc2C(=O)O)c2nc(N3CCOCC3)cc(=O)n2c1 [AZD-6482],% of control,[6],100%
CC[C@@H]1[C@H](F)C(=O)N[C@@H]1COc1nccc2cc(C(N)=O)c(OC)cc12 [ZIMLOVISERTIB],% of inhibition,[7],4.04%
same,% of inhibition,[8]; at 0.01 µM,-3.7%
same,% of inhibition,[8]; at 0.04 µM,1.4%
same,% of inhibition,[8]; at 0.2 µM,2.2%
same,% of inhibition,[8]; at 1 µM,2%
same,% of inhibition,[8]; at 5 µM,-4.4%
same,% of inhibition,[9],7.87%
same,% of inhibition,[10],1.87%
same,% of inhibition,[11],-31.2%
CNC(=O)Nc1ccc(-c2nc(N3CC4CCC(C3)O4)c3cnn(C4CCC5(CC4)OCCO5)c3n2)cc1,% of inhibition,[12],14%
Cc1cc(F)c(C(=O)Nc2cccc(-c3nncn3C(C)C)n2)cc1-n1cnc(C2CC2)c1,% of control,[13],88%
C=CC(=O)Nc1cc(-n2c(=O)ccc3cnc4ccc(-c5ccc(NS(C)(=O)=O)cc5)cc4c32)ccc1C,% of control,[14]; at 1 µM,100%
same,% of control,[14]; at 10 µM,98%
N#Cc1cccc(-c2c[nH]c3ncnc(N4CCOCC4)c23)c1,% of inhibition,[15],54%
same,% of inhibition,[16],63%
